According to patent US20250375129A1, “USE OF BLINK REFLEX FOR ATTENTION-DEFICIT/HYPERACTIVITY DISORDER (ADHD) RESPONSE MONITORING AND/OR TREATMENT SELECTION” (Blinktbi, Inc., priority 2022, published 2025):
“Also recorded” adds a separate entry of the source.

System: blink reflex
Test: Blink reflex response parameters in ADHD patients before and 1 hour after their prescribed ADHD medication versus non-ADHD controls (pilot study)
Assay type: in vivo, humans
Details: for Max closing velocity, effect of medication type (in words): compared to controls and participants before taking their ADHD medications; for Delta 30, Estimate of Fixed Effects / Excursions, Estimate of Fixed Effects / Initial Velocity, Estimate of Fixed Effects / Max Closing Velocity, Estimate of Fixed Effects / Differential Latency, Estimate of Fixed Effects: Model 3 mixed model by medication type; for Delta 30, Estimate of Fixed Effects / Excursions, Estimate of Fixed Effects / Initial Velocity, Estimate of Fixed Effects / Max Closing Velocity, Estimate of Fixed Effects / Differential Latency, Estimate of Fixed Effects / Max Closing Velocity, Estimate of Fixed Effects, further analysis: relative to Med_type = 4 (Control); for Differential Latency, Estimate of Fixed Effects: AMP n=20, ATX n=2, MPH n=2; for Max Closing Velocity, Estimate of Fixed Effects, further analysis: Model 3 with confounders hours of sleep, urine specific gravity and age

| Compound | Delta 30, effect of medication type (in words) (Model 3) | Differential Latency, effect of medication type (in words) (Model 3) | Max closing velocity, effect of medication type (in words) (Model 3) | Delta 30, Estimate of Fixed Effects | Excursions, Estimate of Fixed Effects | Initial Velocity, Estimate of Fixed Effects | Max Closing Velocity, Estimate of Fixed Effects | Differential Latency, Estimate of Fixed Effects | Max Closing Velocity, Estimate of Fixed Effects, further analysis | Excursions, effect of medication type (in words) (Model 3) | Initial Velocity, effect of medication type (in words) (Model 3) | Blink reflex parameters predictive for treatment type (in words) (Model 3 conclusion, ATX=2, MPH=2, AMP=20 participants) |
| --- | --- | --- | --- | --- | --- | --- | --- | --- | --- | --- | --- | --- |
| CNCC[C@@H](Oc1ccccc1C)c1ccccc1 [ATX] | statistically significant | statistically significant | associated with an increase | −4.184 | 13.866 | .532 | 2.659 | −2.456 | 2.277 |  |  |  |
| COC(=O)C(c1ccccc1)C1CCCCN1 (stereo not drawn) [MPH, methylphenidate] | statistically significant | statistically significant | associated with an increase | −1.756 | 14.707 | .578 | 1.378 | −0.980 | 1.265 | statistically significant | statistically significant; also recorded: slight increase | particularly predictive |
